Test results from US20240409585A1, “MACROCYCLIC IMMUNOMODULATORS” (priority 2021, published 2024).
Bridge positions count the residues as written; N and C are the ends. Square brackets hold non-standard residues; d marks the D form. Peptide text beside a SMILES is read from it. * marks the point of attachment. ξ: configuration not given here. Gly(1-amidinopiperidin-4-yl) = N=C(N)N1CCC([C@H](N)C(=O)O)CC1; Phe(3-CF3) = N[C@@H](Cc1cccc(C(F)(F)F)c1)C(=O)O; Ala(morpholin-4-yl) = N[C@@H](CN1CCOCC1)C(=O)O; Phe(4-COOH) = N[C@@H](Cc1ccc(C(=O)O)cc1)C(=O)O; Bip = N[C@@H](Cc1ccc(-c2ccccc2)cc1)C(=O)O; Phe(3-Me) = Cc1cccc(C[C@H](N)C(=O)O)c1; Val(3-OH) = CC(C)(O)[C@H](N)C(=O)O; mTyr = N[C@@H](Cc1cccc(O)c1)C(=O)O; 4Pal = N[C@@H](Cc1ccncc1)C(=O)O; Cha = N[C@@H](CC1CCCCC1)C(=O)O; Cit = NC(=O)NCCC[C@H](N)C(=O)O; Ile(3ξ) = CCC(C)[C@H](N)C(=O)O; Thr(3ξ) = CC(O)[C@H](N)C(=O)O; Carboxymethyl = O=C(O)C*; NMeA = CN[C@@H](C)C(=O)O; Dab = NCC[C@H](N)C(=O)O

Target: T1, PE-labeled human PD-L1-Ig binding to Jurkat cell line over-expressing human PD-1 (Jurkat-PD-1) (Homo sapiens, UniProt Q15116)
T1 construct: expressed in transfected cells; host or cells: Jurkat
Assay: Jurkat-PD-1 Cell Binding High-Content Screening Assay (CBA): Method 1
Conditions: Jurkat-hPD-1 cells, PE-labeled PD-L1-Ig 20 nM final; read-out: Jurkat HPDL1 PD1 IC50 (uM) (Method 1)

T1 sequence (Q15116 25-288): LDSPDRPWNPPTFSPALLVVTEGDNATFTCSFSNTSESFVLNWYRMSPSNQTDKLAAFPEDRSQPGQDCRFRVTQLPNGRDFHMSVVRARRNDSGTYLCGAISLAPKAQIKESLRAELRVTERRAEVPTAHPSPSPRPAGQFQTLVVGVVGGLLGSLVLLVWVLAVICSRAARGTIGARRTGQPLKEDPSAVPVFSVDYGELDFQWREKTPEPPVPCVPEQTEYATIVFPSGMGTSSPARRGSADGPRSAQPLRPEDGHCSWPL

| Compound | IC50 |
| --- | --- |
| Cc1cccc(C[C@@H]2NC(=O)[C@H](CC(=O)O)NC(=O)[C@H](Cc3ccc(O)cc3)NC(=O)[C@H](CC(N)=O)NC(=O)CSC[C@@H](C(=O)N[C@@H](CCN)C(N)=O)NC(=O)[C@H]([C@@H](C)O)NC(=O)[C@H](C(C)C)NC(=O)[C@H](CC3CCCCC3)NC(=O)[C@H](CCN)NC(=O)[C@@H](CC(C)C)NC(=O)[C@H](C)N(C)C(=O)[C@H](CCCNC(N)=O)NC(=O)[C@H](Cc3ccc(-c4ccccc4)cc3)NC(=O)[C@H](C(C)(C)O)NC2=O)c1 [Compound 1703] ({CH2CO}-NYD[Phe(3-Me)][Val(3-OH)][Bip][Cit][NMeA][dL][Dab][Cha]VTC[Dab]-NH2; thioether N-14) | 0.02 µM |
| CC(C)C[C@@H]1NC(=O)[C@H](CCCCN)NC(=O)[C@@H](CC(C)C)NC(=O)[C@H](C)N(C)C(=O)[C@H](Cc2cnc[nH]2)NC(=O)[C@H](Cc2ccc(-c3ccccc3)cc2)NC(=O)[C@H](C(C)C)NC(=O)[C@H](Cc2c[nH]c3ccccc23)NC(=O)[C@H](CC(=O)O)NC(=O)[C@H](Cc2ccc(O)cc2)NC(=O)[C@H](CC(N)=O)NC(=O)CSC[C@@H](C(=O)N[C@@H](C)C(N)=O)NC(=O)[C@H]([C@@H](C)O)NC(=O)[C@H](C(C)C)NC1=O [Compound 1481] ({CH2CO}-NYDWV[Bip]H[NMeA][dL]KLVTCA-NH2; thioether N-14) | 0.12 µM |
| CC(C)C[C@@H]1NC(=O)[C@H](CCN)NC(=O)[C@@H](CC(C)C)NC(=O)[C@H](C)N(C)C(=O)[C@H](CCC(=O)O)NC(=O)[C@H](Cc2ccc(-c3ccccc3)cc2)NC(=O)[C@H](C(C)C)NC(=O)[C@H](Cc2c[nH]c3ccccc23)NC(=O)[C@H](CC(=O)O)NC(=O)[C@H](Cc2ccc(O)cc2)NC(=O)[C@H](CC(N)=O)NC(=O)CSC[C@@H](C(=O)N[C@@H](C)C(N)=O)NC(=O)[C@H](CO)NC(=O)[C@H](C(C)C)NC1=O [Compound 1248] ({CH2CO}-NYDWV[Bip]E[NMeA][dL][Dab]LVSCA-NH2; thioether N-14) | 0.07 µM |
| CC(C)C[C@@H]1NC(=O)[C@H](Cc2c[nH]c3ccccc23)NC(=O)[C@H](CC(=O)O)NC(=O)[C@H](Cc2cccc(O)c2)NC(=O)[C@H](Cc2ccccc2)NC(=O)CSC[C@@H](C(=O)N[C@@H](C)C(N)=O)NC(=O)[C@H](CO)NC(=O)[C@H](C(C)C)NC(=O)[C@H](CC(C)C)NC(=O)[C@H](CC(N)=O)NC(=O)[C@@H](C)NC(=O)[C@H](C)N(C)C(=O)[C@H](C(C)C)NC(=O)[C@H](Cc2ccc(-c3ccccc3)cc2)NC1=O [Compound 1765] ({CH2CO}-F[mTyr]DWL[Bip]V[NMeA][dA]NLVSCA-NH2; thioether N-14) | 0.04 µM |
| CC(C)C[C@@H]1NC(=O)[C@H](CCN)NC(=O)[C@@H](CC(C)C)NC(=O)[C@H](C)N(C)C(=O)[C@H](CCC(=O)O)NC(=O)[C@H](Cc2ccc(-c3ccccc3)cc2)NC(=O)[C@H](C(C)C)NC(=O)[C@H](Cc2c[nH]c3ccccc23)NC(=O)[C@H](CC(=O)O)NC(=O)[C@H](Cc2ccc(O)cc2)NC(=O)[C@H](Cc2ccccc2)NC(=O)CSC[C@@H](C(=O)N[C@@H](C)C(N)=O)NC(=O)[C@H]([C@@H](C)O)NC(=O)[C@H](C(C)C)NC1=O [Compound 1134] ({CH2CO}-FYDWV[Bip]E[NMeA][dL][Dab]LVTCA-NH2; thioether N-14) | 0.11 µM |
| CC(C)C[C@@H]1NC(=O)[C@H](CCN)NC(=O)[C@@H](CC(C)C)NC(=O)[C@H](C)N(C)C(=O)[C@H](CCCNC(N)=O)NC(=O)[C@H](Cc2ccc(-c3ccccc3)cc2)NC(=O)[C@H](C(C)C)NC(=O)[C@H](Cc2c[nH]c3ccccc23)NC(=O)[C@H](CC(=O)O)NC(=O)[C@H](Cc2ccncc2)NC(=O)[C@H](CC(N)=O)NC(=O)CSC[C@@H](C(=O)N[C@@H](C)C(N)=O)NC(=O)[C@H]([C@@H](C)O)NC(=O)[C@H](C(C)C)NC1=O [Compound 1320] ({CH2CO}-N[4Pal]DWV[Bip][Cit][NMeA][dL][Dab]LVTCA-NH2; thioether N-14) | 0.02 µM |

Now from value to molecule:

| IC50 | Compound |
| --- | --- |
| 0.02 µM | CCC(C)[C@@H]1NC(=O)[C@H](Cc2ccc(-c3ccccc3)cc2)NC(=O)[C@H](C(C)C)NC(=O)[C@H](Cc2c[nH]c3ccccc23)NC(=O)[C@H](CC(=O)O)NC(=O)[C@H](Cc2ccc(O)cc2)NC(=O)[C@H](C2CCN(C(=N)N)CC2)NC(=O)CSC[C@@H](C(=O)N[C@@H](C)C(N)=O)NC(=O)[C@H](C(C)O)NC(=O)[C@H](C(C)C)NC(=O)[C@H](CC2CCCCC2)NC(=O)[C@H](CCN)NC(=O)[C@@H](CC(C)C)NC(=O)[C@H](C)N(C)C1=O (stereo partly drawn) [Compound 2054] ({CH2CO}-[Gly(1-amidinopiperidin-4-yl)]YDWV[Bip][Ile(3ξ)][NMeA][dL][Dab][Cha]V[Thr(3ξ)]CA-NH2; thioether N-14) |
| 0.26 µM | Cc1cccc(C[C@@H]2NC(=O)[C@H](CC(=O)O)NC(=O)[C@H](Cc3ccc(C(=O)O)cc3)NC(=O)[C@H](Cc3ccncc3)NC(=O)CSC[C@@H](C(=O)N[C@@H](CO)C(N)=O)NC(=O)[C@H](CCC(=O)O)NC(=O)[C@H](C(C)(C)O)NC(=O)[C@H](CC3CCCCC3)NC(=O)[C@H](CCN)NC(=O)[C@@H](CC(C)C)NC(=O)[C@H](C)N(C)C(=O)[C@H](Cc3ccc(OCC(=O)O)cc3)NC(=O)[C@H](Cc3ccc(-c4ccccc4)cc3)NC(=O)[C@H](Cc3ccc(OCC(=O)O)cc3)NC2=O)c1 [Compound 2194] ({CH2CO}-[4Pal][Phe(4-COOH)]D[Phe(3-Me)]Y(Carboxymethyl)[Bip]Y(Carboxymethyl)[NMeA][dL][Dab][Cha][Val(3-OH)]ECS-NH2; thioether N-14) |
| 0.03 µM | CC(C)C[C@@H]1NC(=O)[C@H](CCN)NC(=O)[C@@H](CC(C)C)NC(=O)[C@H](C)N(C)C(=O)[C@H](CCCNC(N)=O)NC(=O)[C@H](Cc2ccc(-c3ccccc3)cc2)NC(=O)[C@H](C(C)C)NC(=O)[C@H](Cc2c[nH]c3ccccc23)NC(=O)[C@H](CC(=O)O)NC(=O)[C@H](Cc2ccc(O)cc2)NC(=O)[C@H](Cc2ccccc2)NC(=O)CSC[C@@H](C(=O)N[C@@H](C)C(N)=O)NC(=O)[C@H](C(C)O)NC(=O)[C@H](C(C)C)NC1=O (stereo partly drawn) [Compound 2033] ({CH2CO}-FYDWV[Bip][Cit][NMeA][dL][Dab]LV[Thr(3ξ)]CA-NH2; thioether N-14) |
| 0.08 µM | CC(C)[C@@H]1NC(=O)[C@H](CC2CCCCC2)NC(=O)[C@H](CCN)NC(=O)CNC(=O)[C@H](C)N(C)C(=O)[C@H](Cc2ccc(C(=O)O)cc2)NC(=O)[C@H](Cc2ccc(-c3ccccc3)cc2)NC(=O)[C@H](Cc2ccc(C(=O)O)cc2)NC(=O)[C@H](Cc2cccc(C(F)(F)F)c2)NC(=O)[C@H](CC(=O)O)NC(=O)[C@H](Cc2ccc(C(=O)O)cc2)NC(=O)[C@H](CN2CCOCC2)NC(=O)CSC[C@@H](C(=O)N[C@@H](CCN)C(N)=O)NC(=O)[C@H](CCC(=O)O)NC1=O [Example 2286] ({CH2CO}-[Ala(morpholin-4-yl)][Phe(4-COOH)]D[Phe(3-CF3)][Phe(4-COOH)][Bip][Phe(4-COOH)][NMeA]G[Dab][Cha]VEC[Dab]-NH2; thioether N-14) |
| 0.05 µM | CCC(C)[C@@H]1NC(=O)[C@H](Cc2ccc(-c3ccccc3)cc2)NC(=O)[C@H](C(C)C)NC(=O)[C@H](Cc2c[nH]c3ccccc23)NC(=O)[C@H](CC(=O)O)NC(=O)[C@H](Cc2ccc(O)cc2)NC(=O)[C@H](CC(N)=O)NC(=O)CSC[C@@H](C(=O)N[C@@H](C)C(N)=O)NC(=O)[C@H](C(C)O)NC(=O)[C@H](C(C)C)NC(=O)[C@H](CC(C)C)NC(=O)[C@H](CCN)NC(=O)[C@@H](CC(C)C)NC(=O)[C@H](C)N(C)C1=O (stereo partly drawn) [Compound 2040] ({CH2CO}-NYDWV[Bip][Ile(3ξ)][NMeA][dL][Dab]LV[Thr(3ξ)]CA-NH2; thioether N-14) |
